According to ChEMBL document CHEMBL5543144, “Discovery of a Novel Potent Tetrazole Antifungal Candidate with High Selectivity and Broad Spectrum” (J Med Chem, 2024):
Converted amounts (≈) assume the structure as drawn. The source made the active and inactive calls. The rule behind the calls is not given here.

Tests used:
Candida albicans [1] = experiment: Antifungal activity against Candida albicans SC5314 assessed as inhibition of fungal growth incubated for 24 hrs by CLSI protocol based microbroth dilution method; format: functional
Candida parapsilosis = experiment: Antifungal activity against Candida parapsilosis 22019 assessed as inhibition of fungal growth incubated for 24 hrs by CLSI protocol based microbroth dilution method; format: functional; settings: Lodderomyces parapsilosis
Candida tropicalis [2] = experiment: Antifungal activity against Candida tropicalis 2718 assessed as inhibition of fungal growth incubated for 24 hrs by CLSI protocol based microbroth dilution method; format: functional
Pichia kudriavzevii [3] = experiment: Antifungal activity against Candida krusei 4946 assessed as inhibition of fungal growth incubated for 24 hrs by CLSI protocol based microbroth dilution method; format: functional
Nakaseomyces glabratus = experiment: Antifungal activity against Candida glabrata 537 assessed as inhibition of fungal growth incubated for 48 hrs by CLSI protocol based microbroth dilution method; format: functional
Cryptococcus neoformans [4] = experiment: Antifungal activity against Cryptococcus neoformans H99 assessed as inhibition of fungal growth incubated for 72 hrs by CLSI protocol based microbroth dilution method; format: functional
Aspergillus fumigatus = experiment: Antifungal activity against Aspergillus fumigatus 7544 assessed as inhibition of fungal growth incubated for 48 hrs by CLSI protocol based microbroth dilution method; format: functional
[Candida] auris [5] = Antifungal activity against fluconazole resistant Candida auris 887 assessed as inhibition of fungal growth incubated for 48 hrs by CLSI protocol based microbroth dilution method; format: functional; settings: Candidozyma auris
[Candida] auris [6] = Antifungal activity against fluconazole resistant Candida auris 888 assessed as inhibition of fungal growth incubated for 48 hrs by CLSI protocol based microbroth dilution method; format: functional; settings: Candidozyma auris
[Candida] auris [7] = Antifungal activity against fluconazole resistant Candida auris D12 assessed as inhibition of fungal growth incubated for 48 hrs by CLSI protocol based microbroth dilution method; format: functional; settings: Candidozyma auris
[Candida] auris [8] = Antifungal activity against fluconazole resistant Candida auris BS12372 assessed as inhibition of fungal growth incubated for 48 hrs by CLSI protocol based microbroth dilution method; format: functional; settings: Candidozyma auris
[Candida] auris [9] = Antifungal activity against fluconazole resistant Candida auris 789 assessed as inhibition of fungal growth incubated for 48 hrs by CLSI protocol based microbroth dilution method; format: functional; settings: Candidozyma auris
[Candida] auris [10] = Antifungal activity against fluconazole resistant Candida auris 791 assessed as inhibition of fungal growth incubated for 48 hrs by CLSI protocol based microbroth dilution method; format: functional; settings: Candidozyma auris
Candida albicans [11] = experiment: Antifungal activity against Candida albicans SC5314 assessed as inhibition of fungal growth at 0.0156 ug/ml incubated for 24 hrs by plate reader analysis; format: functional, organism-based; settings: dose 0.0156 µg/ml
Cryptococcus neoformans [12] = experiment: Antifungal activity against Cryptococcus neoformans H99 assessed as inhibition of fungal growth at 0.125 ug/ml incubated for 48 hrs by plate reader analysis; format: functional, organism-based; settings: dose 0.125 µg/ml
Candida tropicalis [13] = experiment: Antifungal activity against Candida tropicalis 2718 assessed as inhibition of fungal growth at 32 ug/ml incubated for 24 hrs by plate reader analysis; format: functional, organism-based; settings: dose 32.0 µg/ml
Pichia kudriavzevii [14] = experiment: Antifungal activity against Candida krusei 4946 assessed as inhibition of fungal growth at 0.125 ug/ml incubated for 24 hrs by plate reader analysis; format: functional, organism-based; settings: dose 0.125 µg/ml

| SMILES | MIC50 (Candida albicans [1]) [µg/mL] | MIC50 (Candida parapsilosis) [µg/mL] | MIC50 (Candida tropicalis [2]) [µg/mL] | MIC50 (Pichia kudriavzevii [3]) [µg/mL] | MIC50 (Nakaseomyces glabratus) [µg/mL] | MIC50 (Cryptococcus neoformans [4]) [µg/mL] | MIC50 (Aspergillus fumigatus) [µg/mL] | MIC50 ([Candida] auris [5]) [µg/mL] | MIC50 ([Candida] auris [6]) [µg/mL] | MIC50 ([Candida] auris [7]) [µg/mL] | MIC50 ([Candida] auris [8]) [µg/mL] | MIC50 ([Candida] auris [9]) [µg/mL] | MIC50 ([Candida] auris [10]) [µg/mL] | Activity (Candida albicans [11]) | Activity (Cryptococcus neoformans [12]) | Activity (Candida tropicalis [13]) | Activity (Pichia kudriavzevii [14]) |
| --- | --- | --- | --- | --- | --- | --- | --- | --- | --- | --- | --- | --- | --- | --- | --- | --- | --- |
| C[C@@H](n1cnc2cc(Cl)ccc2c1=O)[C@](O)(Cn1cnnn1)c1ccc(F)cc1F | < 0.008 | 0.063 (≈ 0.146 µM) | < 0.008 | 0.25 (≈ 0.578 µM) | 0.031 (≈ 0.0716 µM) | 2 (≈ 4.62 µM) | 8 (≈ 18.5 µM) | 32 (≈ 73.9 µM) | 16 (≈ 37 µM) | 8 (≈ 18.5 µM) | 8 (≈ 18.5 µM) | 16 (≈ 37 µM) | 32 (≈ 73.9 µM) |  |  |  |  |
| C[C@@H](n1ncc2cc(Cl)ccc2c1=O)[C@](O)(Cn1cncn1)c1ccc(F)cc1F | < 0.008 | < 0.008 | < 0.008 | 0.125 (≈ 0.289 µM) | < 0.008 | < 0.008 | 0.25 (≈ 0.579 µM) | 1 (≈ 2.32 µM) | 1 (≈ 2.32 µM) | 0.5 (≈ 1.16 µM) | 0.5 (≈ 1.16 µM) | 2 (≈ 4.63 µM) | 1 (≈ 2.32 µM) | Active | Active |  |  |
| CC[C@@H]([C@H](C)O)n1ncn(-c2ccc(N3CCN(c4ccc(OC[C@@H]5CO[C@@](Cn6cncn6)(c6ccc(F)cc6F)C5)cc4)CC3)cc2)c1=O [POSACONAZOLE] | 0.016 (≈ 0.0228 µM) | 0.25 (≈ 0.357 µM) | < 0.008 | 0.5 (≈ 0.713 µM) | 0.5 (≈ 0.713 µM) | 0.063 (≈ 0.0899 µM) | 0.25 (≈ 0.357 µM) | 16 (≈ 22.8 µM) | 8 (≈ 11.4 µM) | 0.5 (≈ 0.713 µM) | 1 (≈ 1.43 µM) | 16 (≈ 22.8 µM) | 2 (≈ 2.85 µM) |  |  |  |  |
| C[C@@H](c1ncncc1F)[C@](O)(Cn1cncn1)c1ccc(F)cc1F [VORICONAZOLE] | < 0.008 | 0.016 (≈ 0.0458 µM) | < 0.008 | 0.063 (≈ 0.18 µM) | < 0.008 | 0.063 (≈ 0.18 µM) | 0.25 (≈ 0.716 µM) | 2 (≈ 5.73 µM) | 2 (≈ 5.73 µM) | 2 (≈ 5.73 µM) | 2 (≈ 5.73 µM) | 2 (≈ 5.73 µM) | 4 (≈ 11.5 µM) |  |  |  |  |
| C[C@@H](n1ncc2cc(Cl)ccc2c1=O)[C@](O)(Cn1cnnn1)c1ccc(F)cc1F | < 0.008 | 0.063 (≈ 0.146 µM) | < 0.008 | 0.5 (≈ 1.16 µM) | < 0.008 | 0.063 (≈ 0.146 µM) | 8 (≈ 18.5 µM) | 16 (≈ 37 µM) | 32 (≈ 73.9 µM) | 8 (≈ 18.5 µM) | 4 (≈ 9.24 µM) | 16 (≈ 37 µM) | 32 (≈ 73.9 µM) |  |  | Active |  |
| C[C@@H](n1ccc2cc(Cl)ccc2c1=O)[C@](O)(Cn1cncn1)c1ccc(F)cc1F | < 0.008 | < 0.008 | < 0.008 | 0.063 (≈ 0.146 µM) | < 0.008 | < 0.008 | 0.25 (≈ 0.58 µM) | 0.25 (≈ 0.58 µM) | 0.25 (≈ 0.58 µM) | 0.25 (≈ 0.58 µM) | 0.25 (≈ 0.58 µM) | 0.5 (≈ 1.16 µM) | 0.5 (≈ 1.16 µM) | Active | Active |  | Active |
| C[C@@H](n1ccc2ccccc2c1=O)[C@](O)(Cn1cncn1)c1ccc(F)cc1F | < 0.008 | 0.016 (≈ 0.0404 µM) | 0.016 (≈ 0.0404 µM) | 0.125 (≈ 0.315 µM) | 0.016 (≈ 0.0404 µM) | 0.016 (≈ 0.0404 µM) | 0.5 (≈ 1.26 µM) |  |  |  |  |  |  |  |  |  |  |
| C[C@@H](n1cnc2cc(C(F)(F)F)ccc2c1=O)[C@](O)(Cn1cnnn1)c1ccc(F)cc1F | < 0.008 | 0.125 (≈ 0.268 µM) | < 0.008 | > 4 | < 0.008 | 4 (≈ 8.58 µM) | 16 (≈ 34.3 µM) |  |  |  |  |  |  |  |  |  |  |
| C[C@@H](n1ncc2cn(-c3ccc(Cl)cc3)nc2c1=O)[C@](O)(Cn1cncn1)c1ccc(F)cc1F | 0.5 (≈ 1 µM) | 1 (≈ 2.01 µM) | 1 (≈ 2.01 µM) | > 64 | 1 (≈ 2.01 µM) | 4 (≈ 8.03 µM) | > 64 |  |  |  |  |  |  |  |  |  |  |
| C[C@@H](n1ccc2cc(F)ccc2c1=O)[C@](O)(Cn1cncn1)c1ccc(F)cc1F | < 0.008 | < 0.008 | < 0.008 | 0.016 (≈ 0.0386 µM) | 0.016 (≈ 0.0386 µM) | < 0.008 | 0.25 (≈ 0.603 µM) |  |  |  |  |  |  |  |  |  |  |
| C[C@@H](n1ncc2cn(-c3ccccc3)nc2c1=O)[C@](O)(Cn1cncn1)c1ccc(F)cc1F | 0.5 (≈ 1.08 µM) | 1 (≈ 2.16 µM) | 0.5 (≈ 1.08 µM) | > 64 | 1 (≈ 2.16 µM) | > 64 | > 64 |  |  |  |  |  |  |  |  |  |  |
| C[C@@H](n1cnc2cc(OC(F)(F)F)ccc2c1=O)[C@](O)(Cn1cnnn1)c1ccc(F)cc1F | < 0.008 | 0.25 (≈ 0.518 µM) | 0.031 (≈ 0.0643 µM) | > 4 | < 0.008 | 0.125 (≈ 0.259 µM) | 32 (≈ 66.3 µM) |  |  |  |  |  |  |  |  |  |  |
| O[C@@](Cn1cnnn1)(c1ccc(F)cc1F)C(F)(F)c1ccc(-c2ccc(OCC(F)(F)F)cc2)cn1 [OTESECONAZOLE] | < 0.008 | < 0.008 | < 0.008 | 0.5 (≈ 0.948 µM) | < 0.008 | < 0.008 | > 64 | 4 (≈ 7.58 µM) | 8 (≈ 15.2 µM) | 4 (≈ 7.58 µM) | 1 (≈ 1.9 µM) | 8 (≈ 15.2 µM) | 8 (≈ 15.2 µM) | Active | Active |  |  |
